Each structure is given as a SMILES string. A value given as a limit tells only on which side of the number the result lay.

Data set [1] has as its target PDE10A (UniProt Q9Y233). Briefly: Measurement of PDE activity (HTRF cAMP kit, recombinant PDE10A). It is filed as biochemical, human, rat and mouse. To be noted: substrate 20 nM, 60 minutes at 29° C. How it is done: a) Measurement of PDE Activity
The recombinant PDE proteins are used in in vitro enzymatic reaction for measurement of PDE activity. These recombinant proteins, including PDE10A (human, rat and mouse PDE10) and isoforms of PDEs 1, 3, 4, and 5, were purchased from commercial vendor BPS Bioscience. The enzymatic activity of PDEs was determined by cAMP measurement kit from CisBio (IBA) using HTRF technology.
The PDE enzymatic reaction was carried out in assay buffer (20 mM Tris-HCl pH 7.5, 10 mM MgCl2, 0.1% bovine serum albumin) containing enzyme and substrate. […] The substrate cyclic nucleotide (cAMP or cGMP) concentration used in the assay was 20 nM for PDE10, and 100 nM for other PDEs. The inhibitory effect of compound was determined by incubating various concentration of inhibitor in the enzymatic assay. […] Next, the compound at varying concentration was mixed with PDE enzyme. The reaction was initiated by addition of cyclic nucleotide substrate, and incubated for 60 minutes at 29° C. The reaction was stopped by addition of lysis buffer from the assay kit. The cAMP-d2 and anti-cAMP cryptate in the lysis buffer detected the level of cAMP left from the PDE hydrolysis reaction. […] Thus, IC50 value of inhibitor can be obtained by plotting inhibitor concentration against PDE activity at that concentration.
(In general: Time-resolved FRET reads energy transfer from a long-lived donor to a nearby acceptor.)

Data set [2] is described as follows: Determination of the microsomal half-life / microsomal clearance, rat liver microsomes. It is filed as in vitro ADME. The conditions noted are these: 0.5 μM test substance, 0.25 mg of microsomal protein/mL, NADPH, 37° C. The procedure, abridged:
(§1)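 Compound (0.5 μM) was preincubated 5 min at 37 °C with rat or human liver microsomes (0.25 mg protein/mL) in 0.05 M phosphate pH 7.4, and NADPH (1 mg/mL) was then added. Samples taken at 0-30 min and quenched with acetonitrile were analysed by MS/MS. T½ was derived assuming first-order decay, and clearance […] was calculated from T½ and protein content.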
For orientation: Liver microsomes are vesicles of endoplasmic reticulum, rich in cytochrome P450 enzymes.

Data set [3] in a line: Determination of the microsomal half-life / microsomal clearance, human liver microsomes. It is filed as in vitro ADME. To be noted: 0.5 μM test substance, 0.25 mg of microsomal protein/mL, NADPH, 37° C. The procedure, abridged: as §1

The IC50 is the concentration at which inhibition is half-maximal. In the case of `COc1cccc(Oc2nn(C)c(=O)c3c(-c4ccncc4)csc23)c1` [Example 85, 7-(3-methoxyphenoxy)-5-methyl-3-(pyridin-4-yl)thieno[2,3-d]pyridazin-4(5H)-one], in data set [1], the concentration for half-maximal inhibition (IC50) lay within 100 to 200 nM. Also, in data set [2], the “Rat mCl” value was “++ (++: <100 μl min^−1 mg^−1)”. Further, the “Human mCl” value in data set [3] is “++ (++: <100 μl min^−1 mg^−1)”.

Take `COc1ccc(Oc2nn(C)c(=O)c3c(-c4ccncc4)csc23)cc1` [Example 86, 7-(4-methoxyphenoxy)-5-methyl-3-(pyridin-4-yl)thieno[2,3-d]pyridazin-4(5H)-one]: the IC50 in data set [1] lay in the range of 200 to 500 nM. Further, the “Rat mCl” value in data set [2] was “+ (+: 100-220 μl min^−1 mg^−1)”. Besides, in data set [3], the “Human mCl” value is given as “++ (++: <100 μl min^−1 mg^−1)”.

For the molecule `COc1cncc(Oc2nn(C)c(=O)c3c(-c4ccncc4)csc23)c1.O=C(O)C(F)(F)F.O=C(O)C(F)(F)F` [Example 88, 7-[(5-methoxypyridin-3-yl)oxy]-5-methyl-3-(pyridin-4-yl)thieno[2,3-d]pyridazin-4(5H)-one bis(trifluoroacetate)], in data set [1], the IC50 is less than 100 nM. Further, the “Rat mCl” value in data set [2] is listed as “++ (++: <100 μl min^−1 mg^−1)”. The “Human mCl” value in data set [3] is given as “++ (++: <100 μl min^−1 mg^−1)”.

Take `Cn1nc(Oc2ccc3c(c2)OCO3)c2scc(-c3ccncc3)c2c1=O` [Example 89, 7-(1,3-benzodioxol-5-yloxy)-5-methyl-3-(pyridin-4-yl)thieno[2,3-d]pyridazin-4(5H)-one]: in data set [1], the IC50 is 200 to 500 nM. The “Rat mCl” value in data set [2] is recorded as “+ (+: 100-220 μl min^−1 mg^−1)”. Besides, the “Human mCl” value in data set [3] is on record as “++ (++: <100 μl min^−1 mg^−1)”.

For `COc1ccc(Oc2nn(C)c(=O)c3c(-c4ccncc4)csc23)cc1OC` [Example 91, 7-(3,4-dimethoxyphenoxy)-5-methyl-3-(pyridin-4-yl)thieno[2,3-d]pyridazin-4(5H)-one], in data set [1], the half-maximal inhibitory concentration (IC50) is less than 100 nM. Moreover, the “Rat mCl” value in data set [2] is recorded as “++ (++: <100 μl min^−1 mg^−1)”. In addition, the “Human mCl” value in data set [3] is “++ (++: <100 μl min^−1 mg^−1)”.

For `COc1cc(OC)cc(Oc2nn(C)c(=O)c3c(-c4ccncc4)csc23)c1` [Example 92, 7-(3,5-dimethoxyphenoxy)-5-methyl-3-(pyridin-4-yl)thieno[2,3-d]pyridazin-4(5H)-one], in data set [1], the IC50 is less than 100 nM. Also, the “Rat mCl” value in data set [2] is reported as “++ (++: <100 μl min^−1 mg^−1)”. The “Human mCl” value in data set [3] was “+ (+: 100-220 μl min^−1 mg^−1)”.

With `Cn1nc(-c2cccc(C#N)c2)c2scc(-c3ccncc3)c2c1=O` [Example 94, 3-[5-methyl-4-oxo-3-(pyridin-4-yl)-4,5-dihydrothieno[2,3-d]pyridazin-7-yl]benzonitrile], the IC50 in data set [1] was in the range of 100 to 200 nM. In addition, the “Rat mCl” value in data set [2] is “++ (++: <100 μl min^−1 mg^−1)”. The “Human mCl” value in data set [3] is “++ (++: <100 μl min^−1 mg^−1)”.

`Cn1nc(-c2ccc(C#N)cc2)c2scc(-c3ccncc3)c2c1=O` [Example 95, 4-[5-methyl-4-oxo-3-(pyridin-4-yl)-4,5-dihydrothieno[2,3-d]pyridazin-7-yl]benzonitrile]: the 50% inhibitory concentration (IC50) in data set [1] was less than 100 nM. In addition, in data set [2], the “Rat mCl” value was “++ (++: <100 μl min^−1 mg^−1)”. The “Human mCl” value in data set [3] is given as “++ (++: <100 μl min^−1 mg^−1)”.

Take `COc1ccc(-c2nn(C)c(=O)c3c(-c4ccncc4)csc23)cc1` [Example 96, 7-(4-methoxyphenyl)-5-methyl-3-(pyridin-4-yl)thieno[2,3-d]pyridazin-4(5H)-one]: the IC50 in data set [1] was less than 100 nM. In addition, in data set [2], the “Rat mCl” value is “++ (++: <100 μl min^−1 mg^−1)”. Moreover, the “Human mCl” value in data set [3] is reported as “+ (+: 100-220 μl min^−1 mg^−1)”.

Take `Cn1nc(-c2ccc3ncoc3c2)c2scc(-c3ccncc3)c2c1=O` [Example 97, 7-(1,3-benzoxazol-6-yl)-5-methyl-3-(pyridin-4-yl)thieno[2,3-d]pyridazin-4(5H)-one]: the IC50 in data set [1] was less than 100 nM. Also, the “Rat mCl” value in data set [2] is “++ (++: <100 μl min^−1 mg^−1)”. Also, the “Human mCl” value in data set [3] is “++ (++: <100 μl min^−1 mg^−1)”.

Consider `COCCn1cc(-c2nn(C)c(=O)c3c(-c4ccncc4)csc23)cn1.O=C(O)C(F)(F)F.O=C(O)C(F)(F)F` [Example 99, 7-[1-(2-methoxyethyl)-1H-pyrazol-4-yl]-5-methyl-3-(pyridin-4-yl)thieno[2,3-d]pyridazin-4(5H)-one bis(trifluoroacetate)], for which, in data set [1], the IC50 is less than 100 nM. Further, the “Rat mCl” value in data set [2] was “++ (++: <100 μl min^−1 mg^−1)”. For the same molecule, the “Human mCl” value in data set [3] is “++ (++: <100 μl min^−1 mg^−1)”.

For `COc1cccc(-c2nn(C)c(=O)c3c(-c4ccncc4)csc23)c1` [Example 123, 7-(3-methoxyphenyl)-5-methyl-3-(pyridin-4-yl)thieno[2,3-d]pyridazin-4(5H)-one], in data set [1], the half-maximal inhibitory concentration (IC50) lay within 100 to 200 nM. The “Rat mCl” value in data set [2] is recorded as “∘ (∘ not avialable or >220 μl min^−1 mg^−1)”. Moreover, the “Human mCl” value in data set [3] is recorded as “+ (+: 100-220 μl min^−1 mg^−1)”.

For `Cn1nc(-c2ccc3c(c2)OCO3)c2scc(-c3ccncc3)c2c1=O` [Example 124, 7-(1,3-benzodioxol-5-yl)-5-methyl-3-(pyridin-4-yl)thieno[2,3-d]pyridazin-4(5H)-one], in data set [1], the IC50 is 200 to 500 nM. Further, in data set [2], the “Rat mCl” value was “+ (+: 100-220 μl min^−1 mg^−1)”. Also, in data set [3], the “Human mCl” value is “+ (+: 100-220 μl min^−1 mg^−1)”.

In the case of `Cc1ncc(-c2csc3c(-c4ccncc4)nn(CC(F)(F)F)c(=O)c23)cn1` [Example 128, 3-(2-methylpyrimidin-5-yl)-7-(pyridin-4-yl)-5-(2,2,2-trifluoroethyl)thieno[2,3-d]pyridazin-4(5H)-one], the concentration for half-maximal inhibition (IC50) in data set [1] was 200 to 500 nM. Moreover, the “Rat mCl” value in data set [2] is recorded as “++ (++: <100 μl min^−1 mg^−1)”. Also, the “Human mCl” value in data set [3] is on record as “++ (++: <100 μl min^−1 mg^−1)”.

Turning to `Cn1nc(-c2ccncc2)c2scc(-c3ccncc3)c2c1=O` [Example 130, 5-methyl-3,7-di(pyridin-4-yl)thieno[2,3-d]pyridazin-4(5H)-one], the half-maximal inhibitory concentration (IC50) in data set [1] lay within 100 to 200 nM. In data set [2], the “Rat mCl” value was “++ (++: <100 μl min^−1 mg^−1)”. For the same molecule, the “Human mCl” value in data set [3] is recorded as “++ (++: <100 μl min^−1 mg^−1)”.

In the case of `O=c1c2c(-c3ccncc3)csc2c(-c2ccncc2)nn1CC(F)(F)F` [Example 131, 3,7-di(pyridin-4-yl)-5-(2,2,2-trifluoroethyl)thieno[2,3-d]pyridazin-4(5H)-one], in data set [1], the IC50 was less than 100 nM. Further, the “Rat mCl” value in data set [2] was “++ (++: <100 μl min^−1 mg^−1)”. Moreover, the “Human mCl” value in data set [3] is “++ (++: <100 μl min^−1 mg^−1)”.

`CC(C)n1nc(-c2ccncc2)c2scc(-c3ccncc3)c2c1=O` [Example 135, 5-(propan-2-yl)-3,7-di(pyridin-4-yl)thieno[2,3-d]pyridazin-4(5H)-one]: in data set [1], the IC50 lay within 200 to 500 nM. Besides, the “Rat mCl” value in data set [2] is “+ (+: 100-220 μl min^−1 mg^−1)”. For the same molecule, the “Human mCl” value in data set [3] is “++ (++: <100 μl min^−1 mg^−1)”.

As for `CCn1nc(-c2ccncc2)c2scc(-c3ccncc3)c2c1=O` [Example 136, 5-ethyl-3,7-di(pyridin-4-yl)thieno[2,3-d]pyridazin-4(5H)-one], in data set [1], the concentration for half-maximal inhibition (IC50) was less than 100 nM. Besides, the “Rat mCl” value in data set [2] is on record as “++ (++: <100 μl min^−1 mg^−1)”. Further, in data set [3], the “Human mCl” value was “++ (++: <100 μl min^−1 mg^−1)”.

For `CCCn1nc(-c2ccncc2)c2scc(-c3ccncc3)c2c1=O` [Example 139, 5-propyl-3,7-di(pyridin-4-yl)thieno[2,3-d]pyridazin-4(5H)-one], in data set [1], the IC50 was 100 to 200 nM. Also, in data set [2], the “Rat mCl” value was “++ (++: <100 μl min^−1 mg^−1)”. Besides, in data set [3], the “Human mCl” value was “+ (+: 100-220 μl min^−1 mg^−1)”.

Consider `CCn1nc(-c2ccncc2)c2scc(-c3cncnc3)c2c1=O` [Example 145, 5-ethyl-7-(pyridin-4-yl)-3-(pyrimidin-5-yl)thieno[2,3-d]pyridazin-4(5H)-one], for which the IC50 in data set [1] was less than 100 nM. Also, the “Rat mCl” value in data set [2] is “++ (++: <100 μl min^−1 mg^−1)”. Also, the “Human mCl” value in data set [3] is reported as “++ (++: <100 μl min^−1 mg^−1)”.

Regarding `O=c1c2c(-c3cncnc3)csc2c(-c2ccncc2)nn1CC1CC1` [Example 146, 5-(cyclopropylmethyl)-7-(pyridin-4-yl)-3-(pyrimidin-5-yl)thieno[2,3-d]pyridazin-4(5H)-one], in data set [1], the IC50 is less than 100 nM. For the same molecule, in data set [2], the “Rat mCl” value is given as “++ (++: <100 μl min^−1 mg^−1)”. The “Human mCl” value in data set [3] is reported as “++ (++: <100 μl min^−1 mg^−1)”.

`Cn1nc(OCc2cccnc2)c2scc(-c3ccncc3)c2c1=O` [Example 147, 5-methyl-3-(pyridin-4-yl)-7-(pyridin-3-ylmethoxy)thieno[2,3-d]pyridazin-4(5H)-one]: in data set [1], the half-inhibitory concentration (IC50) is less than 100 nM. Also, in data set [2], the “Rat mCl” value is on record as “+ (+: 100-220 μl min^−1 mg^−1)”. In data set [3], the “Human mCl” value is “+ (+: 100-220 μl min^−1 mg^−1)”.
